In PubChem BioAssay (NCI):
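Cultured in 96-well plates, cells were exposed to test compound for 48 hours across five concentrations. Here, GI50 denotes the concentration required for 50% inhibition of growth. TGI: concentration producing complete growth inhibition.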

Key:
Assay in all cases: DTP human tumour cell line panel, 48 h
MDA-MB-435 = system: MDA-MB-435
COLO 205 colon = system: COLO 205 colon
NCI-H226 lung = system: NCI-H226 lung
OVCAR-4 ovarian = system: OVCAR-4 ovarian
HOP-62 NSCLC = system: HOP-62 NSCLC
BT-549 breast = system: BT-549 breast
NCI/ADR-RES ovarian = system: NCI/ADR-RES ovarian
KM12 colon = system: KM12 colon
EKVX NSCLC = system: EKVX NSCLC
SK-MEL-28 melanoma = system: SK-MEL-28 melanoma
IGROV1 ovarian = system: IGROV1 ovarian
SF-295 CNS = system: SF-295 CNS
HCT-15 colon = system: HCT-15 colon
OVCAR-3 ovarian = system: OVCAR-3 ovarian
UACC-62 melanoma = system: UACC-62 melanoma
OVCAR-5 ovarian = system: OVCAR-5 ovarian
NCI-H522 lung = system: NCI-H522 lung
HCC-2998 colon = system: HCC-2998 colon
PC-3 prostate = system: PC-3 prostate
OVCAR-8 ovarian = system: OVCAR-8 ovarian
NCI-H460 lung = system: NCI-H460 lung
M14 melanoma = system: M14 melanoma
MDA-MB-231 breast = system: MDA-MB-231 breast
SW-620 colon = system: SW-620 colon
UO-31 renal = system: UO-31 renal
CCRF-CEM leukemia = system: CCRF-CEM leukemia
RXF 393 renal = system: RXF 393 renal
MOLT-4 leukemia = system: MOLT-4 leukemia
HS 578T breast = system: HS 578T breast
HL-60(TB) leukemia = system: HL-60(TB) leukemia
T-47D breast = system: T-47D breast
K-562 leukemia = system: K-562 leukemia
DU-145 prostate = system: DU-145 prostate
LOX IMVI melanoma = system: LOX IMVI melanoma
U251 CNS = system: U251 CNS
MALME-3M melanoma = system: MALME-3M melanoma
SF-268 CNS = system: SF-268 CNS
TK-10 renal = system: TK-10 renal
SN12C renal = system: SN12C renal
CAKI-1 renal = system: CAKI-1 renal
A498 renal = system: A498 renal
UACC-257 melanoma = system: UACC-257 melanoma
SNB-75 CNS = system: SNB-75 CNS
SF-539 CNS = system: SF-539 CNS
SR leukemia = system: SR leukemia
ACHN renal = system: ACHN renal
786-0 renal = system: 786-0 renal
SNB-19 CNS = system: SNB-19 CNS
SK-OV-3 ovarian = system: SK-OV-3 ovarian
HCT-116 colon = system: HCT-116 colon
NCI-H23 lung = system: NCI-H23 lung
SK-MEL-5 melanoma = system: SK-MEL-5 melanoma
SK-MEL-2 melanoma = system: SK-MEL-2 melanoma
RPMI-8226 leukemia = system: RPMI-8226 leukemia
HOP-92 NSCLC = system: HOP-92 NSCLC
A549 NSCLC = system: A549 NSCLC
MCF7 breast = system: MCF7 breast
HT29 colon = system: HT29 colon

## Cn1cc(-c2nc(-c3c[nH]c4ncccc34)cs2)c2cc(Cl)ccc21
MDA-MB-435
  GI50: 3.47 µM
  TGI: > 100 µM
COLO 205 colon
  GI50: 3.74 µM
  TGI: 14.6 µM
NCI-H226 lung
  GI50: 11.9 µM
  TGI: > 100 µM
OVCAR-4 ovarian
  GI50: 0.37 µM
  TGI: > 100 µM
HOP-62 NSCLC
  GI50: 25.3 µM
  TGI: > 100 µM
BT-549 breast
  GI50: 27.3 µM
  TGI: > 100 µM
NCI/ADR-RES ovarian
  GI50: 3.94 µM
  TGI: > 100 µM
KM12 colon
  GI50: 2.26 µM
  TGI: 7.47 µM
EKVX NSCLC
  GI50: 0.678 µM
  TGI: > 100 µM
SK-MEL-28 melanoma
  GI50: 7.43 µM
  TGI: > 100 µM
IGROV1 ovarian
  GI50: 4.54 µM
  TGI: > 100 µM
SF-295 CNS
  GI50: 2.35 µM
  TGI: 8.75 µM
HCT-15 colon
  GI50: 2.34 µM
  TGI: > 100 µM
OVCAR-3 ovarian
  GI50: 7.47 µM
  TGI: 29.7 µM
UACC-62 melanoma
  GI50: 8.8 µM
  TGI: > 100 µM
OVCAR-5 ovarian
  GI50: 1.61 µM
  TGI: > 100 µM
NCI-H522 lung
  GI50: 5.56 µM
  TGI: > 100 µM
HCC-2998 colon
  GI50: 3.47 µM
  TGI: 28.3 µM
PC-3 prostate
  GI50: 3.62 µM
  TGI: > 100 µM
OVCAR-8 ovarian
  GI50: 6.04 µM
  TGI: > 100 µM
NCI-H460 lung
  GI50: 3.2 µM
  TGI: > 100 µM
M14 melanoma
  GI50: 4.85 µM
  TGI: 40.7 µM
MDA-MB-231 breast
  GI50: 2.65 µM
  TGI: 54.1 µM
SW-620 colon
  GI50: 5.3 µM
  TGI: > 100 µM
UO-31 renal
  GI50: 2.81 µM
  TGI: 75.5 µM
CCRF-CEM leukemia
  GI50: 5.51 µM
  TGI: > 100 µM
RXF 393 renal
  GI50: 4.63 µM
  TGI: > 100 µM
MOLT-4 leukemia
  GI50: 4.27 µM
  TGI: > 100 µM
HS 578T breast
  GI50: 4.18 µM
  TGI: 32.7 µM
HL-60(TB) leukemia
  GI50: 5.93 µM
  TGI: > 100 µM
T-47D breast
  GI50: 0.0913 µM
  TGI: 23.6 µM
K-562 leukemia
  GI50: 2.76 µM
  TGI: 15.2 µM
DU-145 prostate
  GI50: 5.67 µM
  TGI: > 100 µM
LOX IMVI melanoma
  GI50: 3.61 µM
  TGI: > 100 µM
U251 CNS
  GI50: 3.85 µM
  TGI: 30.8 µM
MALME-3M melanoma
  GI50: 12.5 µM
  TGI: 56.7 µM
SF-268 CNS
  GI50: 5.28 µM
  TGI: > 100 µM
TK-10 renal
  GI50: 5.78 µM
  TGI: > 100 µM
SN12C renal
  GI50: 4.72 µM
  TGI: 94.2 µM
CAKI-1 renal
  GI50: 2.65 µM
  TGI: 9.22 µM
A498 renal
  GI50: 2.61 µM
  TGI: 12.9 µM
UACC-257 melanoma
  GI50: 3.26 µM
  TGI: 16.5 µM
SNB-75 CNS
  GI50: 3.52 µM
  TGI: > 100 µM
SF-539 CNS
  GI50: 12.1 µM
  TGI: > 100 µM
SR leukemia
  GI50: 6.92 µM
  TGI: > 100 µM
ACHN renal
  GI50: 3.6 µM
  TGI: > 100 µM
786-0 renal
  GI50: 4.62 µM
  TGI: > 100 µM
SNB-19 CNS
  GI50: 6.61 µM
  TGI: > 100 µM
SK-OV-3 ovarian
  GI50: 16.1 µM
  TGI: > 100 µM
HCT-116 colon
  GI50: 4.34 µM
  TGI: > 100 µM
NCI-H23 lung
  GI50: 5.01 µM
  TGI: > 100 µM
SK-MEL-5 melanoma
  GI50: 7.48 µM
  TGI: > 100 µM
SK-MEL-2 melanoma
  GI50: 13.3 µM
  TGI: > 100 µM
RPMI-8226 leukemia
  GI50: 4.87 µM
  TGI: > 100 µM
HOP-92 NSCLC
  GI50: 2.93 µM
  TGI: 18.4 µM
A549 NSCLC
  GI50: 3.94 µM
  TGI: > 100 µM
MCF7 breast
  GI50: 1.16 µM
  TGI: > 100 µM

## O=C(CSc1nc2ccc([N+](=O)[O-])cc2[nH]1)Nc1cccc(C(F)(F)F)c1
MDA-MB-435
  GI50: 2.5 µM
  TGI: 12.8 µM
COLO 205 colon
  GI50: 1.71 µM
  TGI: 3.47 µM
NCI-H226 lung
  GI50: 1.69 µM
  TGI: 9.27 µM
OVCAR-4 ovarian
  GI50: 1.61 µM
  TGI: 14.5 µM
HOP-62 NSCLC
  GI50: 2.56 µM
  TGI: 10.8 µM
BT-549 breast
  GI50: 2.63 µM
  TGI: 11.6 µM
NCI/ADR-RES ovarian
  GI50: 2.29 µM
  TGI: 8.75 µM
KM12 colon
  GI50: 2.2 µM
  TGI: 8.08 µM
EKVX NSCLC
  GI50: 1.84 µM
  TGI: 9.94 µM
SK-MEL-28 melanoma
  GI50: 2.34 µM
  TGI: 13.5 µM
IGROV1 ovarian
  GI50: 2.87 µM
  TGI: 14.7 µM
SF-295 CNS
  GI50: 1.73 µM
  TGI: 5.65 µM
HCT-15 colon
  GI50: 2.74 µM
  TGI: 12.7 µM
OVCAR-3 ovarian
  GI50: 1.66 µM
  TGI: 11 µM
UACC-62 melanoma
  GI50: 1.1 µM
  TGI: 8.85 µM
OVCAR-5 ovarian
  GI50: 2.62 µM
  TGI: 11.1 µM
NCI-H522 lung
  GI50: 1.55 µM
  TGI: 9.05 µM
HCC-2998 colon
  GI50: 2.8 µM
  TGI: 12.2 µM
PC-3 prostate
  GI50: 2.47 µM
  TGI: 11.9 µM
OVCAR-8 ovarian
  GI50: 2.93 µM
  TGI: 15.8 µM
NCI-H460 lung
  GI50: 2.88 µM
  TGI: 11.3 µM
M14 melanoma
  GI50: 3.17 µM
  TGI: 14.9 µM
MDA-MB-231 breast
  GI50: 2.13 µM
  TGI: 6.65 µM
SW-620 colon
  GI50: 3.13 µM
  TGI: 14.6 µM
UO-31 renal
  GI50: 1.81 µM
  TGI: 8.9 µM
CCRF-CEM leukemia
  GI50: 2.58 µM
  TGI: > 60.1 µM
RXF 393 renal
  GI50: 2 µM
  TGI: 8.02 µM
MOLT-4 leukemia
  GI50: 2.71 µM
  TGI: 19.5 µM
HS 578T breast
  GI50: 2.45 µM
  TGI: 10.7 µM
HL-60(TB) leukemia
  GI50: 2.57 µM
  TGI: 8.33 µM
T-47D breast
  GI50: 1.14 µM
  TGI: 11.8 µM
K-562 leukemia
  GI50: 2.16 µM
  TGI: > 39.8 µM
DU-145 prostate
  GI50: 3.54 µM
  TGI: 15 µM
LOX IMVI melanoma
  GI50: 2.95 µM
  TGI: 13 µM
U251 CNS
  GI50: 2.28 µM
  TGI: 12.2 µM
MALME-3M melanoma
  GI50: 1.48 µM
  TGI: 6.66 µM
SF-268 CNS
  GI50: 2.73 µM
  TGI: 13.9 µM
TK-10 renal
  GI50: 3.14 µM
  TGI: 10.9 µM
SN12C renal
  GI50: 2.18 µM
  TGI: 10.6 µM
HT29 colon
  GI50: 2.78 µM
  TGI: 11.3 µM
CAKI-1 renal
  GI50: 1.76 µM
  TGI: 7.15 µM
A498 renal
  GI50: 0.963 µM
  TGI: 3.52 µM
UACC-257 melanoma
  GI50: 1.33 µM
  TGI: 6.63 µM
SNB-75 CNS
  GI50: 1.61 µM
  TGI: 7.81 µM
SF-539 CNS
  GI50: 2.9 µM
  TGI: 11.7 µM
SR leukemia
  GI50: 3.02 µM
  TGI: > 43.7 µM
ACHN renal
  GI50: 2.42 µM
  TGI: 8.21 µM
786-0 renal
  GI50: 2.98 µM
  TGI: 13.1 µM
SNB-19 CNS
  GI50: 2.71 µM
  TGI: 12.7 µM
SK-OV-3 ovarian
  GI50: 1.66 µM
  TGI: 5.86 µM
HCT-116 colon
  GI50: 2.69 µM
  TGI: 12.1 µM
NCI-H23 lung
  GI50: 1.98 µM
  TGI: 8.81 µM
SK-MEL-5 melanoma
  GI50: 1.03 µM
  TGI: 2.57 µM
SK-MEL-2 melanoma
  GI50: 1.96 µM
  TGI: 5.99 µM
RPMI-8226 leukemia
  GI50: 1.37 µM
  TGI: > 23.6 µM
HOP-92 NSCLC
  GI50: 0.3 µM
  TGI: 2.82 µM
A549 NSCLC
  GI50: 2.3 µM
  TGI: 12.7 µM
MCF7 breast
  GI50: 1.95 µM
  TGI: 9.44 µM
